# According to patent publication EP3485891A1, “WOUND TREATMENT COMPOSITION CONTAINING ULDAVIOSIDE A COMPOUND” (Elcubio Co., Ltd., priority 2016, dated 2018):
# Tests used:
# [1] = system: hack-induced animal tissue; assay: Histological change of hack wound tissue (H&E stain, Masson's trichrome stain); type: in vivo, Sprague-Dawley white rats
# Method: In order to investigate a hack healing effect of the uldavioside A compound of the present invention, a histological change was observed using the hack-induced animal tissue.
# The collected tissue was fixed by treatment with 10% formalin for 24 hours. The fixed tissue was embedded with paraffin, and cut into a 5 µm thickness to obtain tissue sections. The tissue sections were deparaffinized, hydrated, and washed, and then subjected to hematoxylin & eosin stain or Masson's trichrome stain.
# Masson's trichrome stain is used to investigate collagen in the tissue, and collagenosis means that the wound in the dermis healed and the functions of the tissue were restored.
# [2] = system: diabetes-induced animal models; assay: Diabetic ulcer healing, circular cut in streptozotocin-induced diabetic rats; type: in vivo, Sprague-Dawley white rats; settings: dorsal circular cut 1 or 1.5 cm, ointment containing 0.025 wt%, topical, 8 days at intervals of 2 days, compared with the control, FIG. 9
# Method: In order to investigate a diabetic ulcer healing effect of the uldavioside A compound of the present invention, an animal experiment was conducted.
# 7-week-old Sprague-Dawley white rats with a body weight of about 300 g were intraperitoneally injected with 60 mg/kg streptozotocin to induce diabetes. After three days, only white rates with a blood glucose level of 300 mg/dℓ or higher were selected by collecting venous blood from the tail vein and measuring the glucose level using a blood glucose meter. The dorsal part of each of the selected white rats was shaved, and a circular cut with a diameter of 1 or 1.5 cm was made on the dorsal part 4-5 cm away from the ear using a puncher. After the circular cut was made, the white rats were randomly assigned and divided into a control treated without the uldavioside A compound of the present invention and a treatment group. For the treatment group, on the day of circular cut induction, the cut was treated with an ointment containing 0.025 wt% of the uldavioside A compound (Preparation Example 1-2 below), wrapped with sterilized Korean traditional paper, and fixed with a band and a bandage to maintain a wet environment. For the control, the cut was treated with an ointment not containing the uldavioside A compound.
# [3] = system: Sprague-Dawley white rats; assay: Full-thickness hack wound healing, visual observation and wound size quantification; type: in vivo; settings: rat hind leg, 3 cm-diameter full-thickness hack, ointment containing 0.025 wt%, topical; days 3, 7, 10, 14; compared with the control (ointment without compound), FIG. 5
# Method: In order to investigate a wound healing effect of the uldavioside A compound of the present invention, an animal experiment was conducted.
# A hind leg of 7-8 week-old Sprague-Dawley white rats was shaved, and disinfected with 70% alcohol, and then a 3 cm-diameter circular full-thickness hack was made. After the full-thickness hack was made, the rats were randomly assigned and divided into a control treated without the uldavioside A compound of the present invention and a treatment group. For the treatment group, on the day of hack induction, the wound was treated with an ointment (Preparation Example 1-2 below) containing 0.025 wt% of the uldavioside A compound, wrapped with sterilized Korean traditional paper, and fixed with a band and a bandage to maintain a wet environment. For the control, the wound was treated with an ointment not containing the uldavioside A compound. Thereafter, on days 3, 7, 10, and 14 of wound induction, the wound site was observed, and the size of the wound site was quantified.
# [4] = system: C2C12 cells; assay: Wound healing (scratch) assay under glucose oxidative stress (glucose oxidase); type: cell-based; settings: 10 µM, 7 mU/mℓ glucose oxidase, compared with the controls, FIG. 4A, 4B
# Method: (§1) In order to investigate the activity of the uldavioside A compound of the present invention, animal cells were incubated. Here, C212 cells, as myoblasts, and NIH3T3 cells and human diploid fibroblasts (HDFs), as fibroblasts, were used as the animal cells. Each type of cells were incubated in a 5% CO2 incubator containing Dulbecco's modified eagle's medium (DMEM) supplemented with 10% fetal bovine serum (FBS), 100 U/mℓ penicillin, and 100 µg/mℓ streptomycin at 37 °C.
# (§2) The C2C12 and NIH3T3 cells incubated in Experimental Example 1 above were dispensed at 1×10^6 cells per well in a 12-well plate, and then stabilized through incubation for 24 hours. Thereafter, DMEM medium containing 0.5% FBS, 100 U/mℓ penicillin, and 100 µg/mℓ streptomycin was placed therein, and then the cells were incubated for 18 hours. After the 18-hour incubation, a scratch with about 0.9 mm was made in the center of each well with growing cells, and the cells were treated with a 10 µM uldavioside A compound, followed by pre-incubation for 1 hour. […] Here, at 0, 12, and 24 hours, the cells were fixed with a fixative (2% formaldehyde and 0.2% glutaraldehyde) and stained with 0.3% crystal violet, and then, the migration of the cells was checked using a microscope, and the reduction in area due to the migration of the cells into a wounded site. […]
# [5] = system: NIH3T3 cells; assay: as above; type: cell-based; settings: 10 µM, 7 mU/mℓ glucose oxidase, compared with the controls, FIG. 4, migration activity higher than in C2C12
# Method: as §1, §2
# [6] = system: C2C12 cells; assay: Cytoprotective activity against glucose oxidative stress in high-glucose environment (MTT); type: cell-based; settings: 50 mM D-glucose, 10 µM and 20 µM, 7 mU/mℓ glucose oxidase, 24 hours, FIG. 8B
# Method: as §1
# (§3) The cytoprotective activity of the uldavioside A compound of the present invention against glucose oxidative stress was investigated.
# (§4) The C2C12 cells and HDF cells incubated in Experimental Example 1 were dispensed at 1×10^5 per well in a 48-well plate, respectively, and then incubated for 24 hours. Thereafter, each well was treated with 50 mM D-glucose to create a high-glucose environment. Then, the cells were treated with the uldavioside A compound at 10 µM and 20 µM, and after 1 hour, were treated with 7 mU/mℓ glucose oxidase, followed by incubation for 24 hours. Here, non-treated C2C12 or HDF cells were used as control 1, high-glucose state cells were used as control 2, and high-glucose state cells treated with glucose oxidase were used as control 3. […] Thereafter, the culture liquid was removed and the formed formazan precipitate was dissolved in 200 µℓ of DMSO, and then the absorbance was measured at 570 nm.
# [7] = system: C2C12 cells; assay: Wound healing (scratch) assay under inflammatory stress (LPS); type: cell-based; settings: 10 µM, 1 hour pre-incubation, then 10 µg/mℓ LPS, 0, 12, 24 hours, compared with the controls (LPS only), FIG. 3A, 3B
# Method: as §1
# (§5) In order to investigate a wound healing effect according to the treatment with the uldavioside A compound of the present invention, a wound healing assay was conducted.
# (§6) The C2C12 and NIH3T3 cells incubated in Experimental Example 1 above were dispensed at 1×10^6 cells per well in a 12-well plate, and then stabilized through incubation for 24 hours. Thereafter, DMEM medium containing 0.5% FBS, 100 U/mℓ penicillin, and 100 µg/mℓ streptomycin was placed therein, and then the cells were incubated for 18 hours. After the 18-hour incubation, a scratch with about 0.9 mm was made in the center of each well with growing cells, and the cells were treated with a 10 µM uldavioside A compound, followed by pre-incubation for 1 hour. After 1 hour, the cells were treated with 10 µg/mℓ lipopolysaccharide (LPS) for inflammatory stress stimulation, and then migration of the cells was observed while the cells were incubated. […]
# [8] = system: NIH3T3 cells; assay: as above; type: cell-based; settings: 10 µM, 1 hour pre-incubation, then 10 µg/mℓ LPS, 0, 12, 24 hours, compared with the controls (LPS only), FIG. 3C, 3D, migration activity higher than in C2C12
# Method: as §1, §5, §6
# [9] = system: C2C12 cells; assay: MTT assay, cytotoxicity; type: cell-based; settings: 1 µM and 10 µM, 24 hours
# Method: as §1
# (§7) The cytotoxicity of the uldavioside A compound of the present invention was investigated using a 3-(4,5-dimethylthiazol-2-yl)-2,5-diphenyltetrazolium bromide (MTT) assay.
# (§8) The C2C12 and NIH3T3 cells incubated in Experimental Example 1 above were dispensed at 1×10^5 cells per well in a 48-well plate and then incubated for 24 hours. Thereafter, DMEM medium containing 0.5% FBS, 100 U/mℓ penicillin, and 100 µg/mℓ streptomycin was placed therein, and then the cells were incubated for 18 hours. After the 18-hour incubation, the cells were treated with an uldavioside A compound at 1 µM and 10 µM and then incubated for 24 hours. Here, non-treated C2C12 and NIH3T3 cells were used as controls. After 24 hours, the cells were treated with an MTT solution at 100 µg/mℓ and incubated at 37 °C for 3 hours. Thereafter, the culture liquid was removed and the formed formazan precipitate was dissolved in 200 µℓ of dimethyl sulfoxide (DMSO), and then the absorbance was measured at 570 nm.
# [10] = system: NIH3T3 cells; assay: MTT assay, cytotoxicity; type: cell-based; settings: 1 µM and 10 µM, 24 hours
# Method: as §1, §7, §8
# [11] = system: VEGF; assay: Immunohistochemistry of hack wound tissue sections; type: in vivo, Sprague-Dawley white rats; settings: IHC, tissue sections on day 10, compared with the control, FIG. 7A
# Source text: (§9) In order to investigate a hack healing effect of the uldavioside A compound of the present invention, the expression changes of proteins associated with angiogenesis and tissue regeneration were observed.
# (§10) The tissue sections on day 10, which were fabricated in Experimental Example 4-2 above, were deparaffinized, hydrated, and washed, and were then subjected to immunohistochemistry (IHC) using antibodies of vascular endothelial growth factor (VEGF) and CD31, which are proteins associated with angiogenesis in tissue, and basic fibroblast growth factor (bFGF) and β-catenin, which are proteins associated with tissue regeneration.
# [12] = system: bFGF; assay: Immunohistochemistry of hack wound tissue sections; type: in vivo, Sprague-Dawley white rats; settings: IHC, tissue sections on day 10, compared with the control, FIG. 7B
# Source text: as §9, §10
# [13] = system: CD31; assay: Immunohistochemistry of hack wound tissue sections; type: in vivo, Sprague-Dawley white rats; settings: IHC, tissue sections on day 10, compared with the control, FIG. 7A
# Source text: as §9, §10
# [14] = system: β-catenin; assay: Immunohistochemistry of hack wound tissue sections; type: in vivo, Sprague-Dawley white rats; settings: IHC, tissue sections on day 10, compared with the control, FIG. 7B
# Source text: as §9, §10
# [15] = system: HDF cells; assay: Cytoprotective activity against glucose oxidative stress in high-glucose environment (MTT); type: cell-based, human; settings: 50 mM D-glucose, 10 µM and 20 µM, 7 mU/mℓ glucose oxidase, 24 hours, FIG. 8A
# Method: as §1, §3, §4
compound,measurement,setting,value
"OCC1(O)COC(Oc2cc(O)cc3c2CC(O)C(c2ccc(O)c(O)c2)O3)C1O (stereo not drawn) [uldavioside A compound, uldavioside A]",inflow of immune cells,"[1]; H&E stain, day 3 after hack induction, ointment 0.025 wt%, FIG. 6(A)",reduced
same,angiogenesis and granulation tissues formation,"[1]; H&E stain, day 7 after hack induction, ointment 0.025 wt%, FIG. 6(A)",actively progressing
same,proliferation of fibroblasts,"[1]; H&E stain, day 10 after hack induction, ointment 0.025 wt%, FIG. 6(A)",active proliferation of fibroblasts were observed
same,amount of collagen stained,"[1]; Masson's trichrome stain, day 7 after hack induction, compared with the control, FIG. 6(B)",remarkably increased
same,collagenosis,"[1]; Masson's trichrome stain, day 17, FIG. 6(B)",collagenosis in most tissues
same,wound site (wound size),[2],started healing from day 4 and the wound size remarkably decreased
same,wound site (size of the wound site),[3],"started healing from day 7, and almost healed on day 14"
same,cell migration,[4],increased
same,cell migration,[5],increased
same,reduction in cell viability by glucose oxidative stress,[6],inhibited in a dose-dependent manner
same,cell migration,[7],increased
same,cell migration,[8],increased
same,cytotoxicity,[9]; MTT,no cytotoxicity
same,cell viability,"[9]; compared with the controls (non-treated cells), FIG. 2A",increased
same,cytotoxicity,[10]; MTT,no cytotoxicity
same,cell viability,"[10]; compared with the controls (non-treated cells), FIG. 2B",increased
same,expression level of VEGF,[11],significantly increased
same,expression level of bFGF,[12],significantly increased
same,expression level of CD31,[13],significantly increased
same,expression level of β-catenin,[14],significantly increased
same,reduction in cell viability by glucose oxidative stress,[15],inhibited in a dose-dependent manner
